We go through seven compounds from patent US10759799B2, “Indazole containing macrocycles and therapeutic uses thereof” (Samumed, LLC, priority 2018, dated 2020).

Usually IC50 stands for the concentration that inhibits the measured activity by half. The EC50 is the concentration giving half of the maximal effect. Read a low EC50 as greater potency. A word on the inhibition: it is the relative decrease from the control value, in per cent.

For data set [1] the following is noted: DMF.
In another data set the target is recombinant GSK3β kinase (Homo sapiens (Human), UniProt P49841). The data set can be described thus: GSK3β kinase assay (Ser/Thr 09 peptide Z-lyte, FRET). It is filed as biochemical. The following applies: 46 μM ATP, one hour at room temperature, read-out: EC50 (μM) (IC50 per method). The text has this:
Representative compounds were screened using the assay procedure for GSK3β kinase activity as described below.
The GSK3β kinase assay is run using the Ser/Thr 09 peptide Z-lyte assay kit according to manufacturer's instructions (Life Technologies—a Division of Thermo-Fisher). This is a non-radioactive assay using fluorescence resonance energy transfer (FRET) between coumarin and fluorescein to detect kinase activity which is represented as ratio of coumarin emission/fluorescein emission.
Briefly, recombinant GSK3β kinase, ATP and Ser/Thr peptide 09 are prepared in 1× Kinase buffer to final concentrations of 0.04 μg/mL, 46 μM, and 4 μM respectively. The mixture is allowed to incubate with the representative compounds for one hour at room temperature. All reactions were performed in duplicate. Unphosphorylated (“0% Control”) and phosphorylated (“100% control”) forms of […] serve as control reactions.
After incubation, diluted Development Buffer is added to the reaction and allowed to further incubate for one hour at room temperature. The plate is read at Ex 400 Em 455 to detect the coumarin signal and Ex 400 Em 520 to measure the signal (EnVision Multilabel Plate Reader, PerkinElmer).
The Emission ratio (Em) is calculated as a ratio of the coumarin (C) emission signal (at 445 nm)/Fluorescein (F) emission signal (at 520 nm). The percent phosphorylation is then calculated using the following formula: [1−((Em ratio×F100%)−C100%)/((C0%−C100%)+(Em ratio×(F100%−F0%)))].
Dose-response curves are generated and inhibitory concentration (IC50) values are calculated using non-linear regression curve fit in the Dotmatics' Studies Software (Bishops Stortford, UK).

Data set [2] concerns the target recombinant DYRK1A kinase (Homo sapiens (Human), UniProt Q13627). Description: DYRK1A kinase assay (Ser/Thr 18 peptide Z-lyte, FRET). It is filed as biochemical. The following applies: 30 μM ATP, one hour at room temperature, read-out: EC50 (μM) (IC50 per method). From the text:
Representative compounds were screened using the assay procedure for DYRK1A kinase activity as described below.
The DYRK1A kinase assay was run using the Ser/Thr 18 peptide Z-lyte assay kit according to manufacturer's instructions (Life Technologies—a Division of Thermo-Fisher). This is a non-radioactive assay using fluorescence resonance energy transfer (FRET) between coumarin and fluorescein to detect kinase activity which is represented as a ratio of coumarin emission/fluorescein emission.
Briefly, recombinant DYRK1A kinase, ATP and Ser/Thr peptide 18 were prepared in 1× Kinase buffer to final concentrations of 0.19 μg/mL, 30 μM, and 4 μM respectively. The mixture was allowed to incubate with the representative compounds for one hour at room temperature. All reactions were performed in duplicate. Unphosphorylated (“0% Control”) and phosphorylated (“100% control”) forms of Ser/Thr 18 served as control reactions. Additionally, an 11-point dose-response curve of Staurosporine (1 uM top) was run to serve as a positive compound control.
After incubation, Development Reagent A was diluted in Development Buffer then added to the reaction and allowed to further incubate for one hour at room temperature. The plate was read at Ex 400 Em 455 to detect the coumarin signal and Ex 400 Em 520 to measure the signal (EnVision Multilabel Plate Reader, PerkinElmer).
The Emission ratio (Em) was calculated as a ratio of the coumarin (C) emission signal (at 445 nm)/Fluorescein (F) emission signal (at 520 nm). The percent phosphorylation was then calculated using the following formula: [1−((Em ratio×F100%)−C100%)/((C0%−C100%)+(Em ratio×(F100%−F0%)))].

Data set [3] relates to Wnt activity (Sp5-Luc reporter, SW480 colon carcinoma cells). The data set can be described thus: Sp5-Luc reporter gene screening assay for Wnt activity in SW480 cells. It counts as cell-based. The following applies: Homo sapiens; Sp5-Luc reporter, SW480 cells, 36 to 48 hours. From the text: The screening assay for Wnt activity is described as follows. Reporter cell lines can be generated by stably transducing cancer cell lines (e.g., colon cancer) or primary cells (e.g., IEC-6 intestinal cells) with a lentiviral construct that includes a Wnt-responsive promoter driving expression of the firefly luciferase gene.
SW480 colon carcinoma cells were transduced with a lentiviral vector expressing luciferase with a human Sp5 promoter consisting of a sequence of eight TCF/LEF binding sites. SW480 cells stably expressing the Sp5-Luc reporter gene and a hygromycin resistance gene were selected by treatment with 150 μg/mL of hygromycin for 7 days. These stably transduced SW480 cells were expanded in cell culture and used for all further screening activities. […] For Sp5-Luc reporter gene assays, the cells were plated at 4,000 cells/well in 384-well plates with a DMEM medium containing 1% fetal bovine serum, and 1% Penicillin-Streptomycin and incubated for 36 to 48 hours at 37° C. and 5% CO2. Following incubation, 15 μl of BriteLite Plus luminescence reagent (Perkin Elmer) was added to each well of the 384-well assay plates. The plates were placed on an orbital shaker for 2 min and then luminescence was quantified using the Envision (Perkin Elmer) plate reader. Readings were normalized to DMSO only treated cells, and normalized activities were utilized for EC50 calculations using the dose-response log (inhibitor) vs. response-variable slope (four parameters) nonlinear regression feature available in GraphPad Prism 5.0 (or Dotmatics).

Data set [4] relates to SW480 colon carcinoma cells. The data set can be described thus: Cell viability assay (CellTiter-Glo) in SW480 cells. It is filed as cell-based. The following applies: Homo sapiens; for EC50: 96 h, SW480 cell viability, four days, CellTiter-Glo. As to the method: Representative compounds were screened using the assay procedure to assess the effect on cell viability as described below.
SW480 colon carcinoma cells were transduced with a lentiviral vector expressing luciferase with a human Sp5 promoter consisting of a sequence of eight TCF/LEF binding sites. SW480 cells stably expressing the Sp5-Luc reporter gene and a hygromycin resistance gene were selected by treatment with 150 μg/mL of hygromycin for 7 days. These stably transduced SW480 cells were expanded in cell culture and used for all further screening activities.
For the Cell Viability Assays, the cells were plated at 2,000 cells/well in 384-well plates with a DMEM medium containing 1% fetal bovine serum, and 1% Penicillin-Streptomycin and incubated for […] at 37° C. and 5% CO2. Eight replicates of DMSO-treated cells served as controls and cells treated with compound were performed in duplicate.
After incubation, 10 μL of CellTiter-Glo (Promega) was added to each well allowed to incubate for approximately 12 minutes. This reagent “results in cell lysis and generation of a luminescent signal proportional to the amount of ATP present. The amount of ATP is directly proportional to the number of cells present in culture, in agreement with previous reports. The CellTiter-Glo Assay generates a “glow-type” luminescent signal, produced by the luciferase reaction (Promega.com)”.
(ATP-based viability assays read luminescence as a measure of living cells.)

Data set [5] has as its system primary human mesenchymal stem cells (hMSCs). Description: Chondrogenesis induction in hMSCs (Rhodamine B staining intensity, EC50). The following applies: 6 days, Rhodamine B staining intensity of nodules. It is filed as cell-based. From the text:
Representative compounds were screened using primary human mesenchymal stem cells (hMSCs) to determine their ability to induce chondrogenesis (process by which cartilage is developed).
Primary human mesenchymal stem cells (hMSCs) were purchased from Lonza (Walkersville, Md.) and expanded in Mesenchymal Stem Cell Growth Media (Lonza). Cells between passage 2 and 4 were used for the experiments.
To image chondrogenic nodules, the cells were fixed using 4% formaldehyde (Electron Microscopy Sciences), and stained with 2 μg/mL Rhodamine B (Sigma-Aldrich) and 20 μM Nile Red (Sigma-Aldrich) [Johnson K., et. al, A Stem Cell-Based Approach to Cartilage Repair, Science, (2012), 336(6082). […] Rhodamine B staining intensity of nodules in each well was normalized to the average of 3 DMSO treated wells on the same plate using Excel (Microsoft Inc.). The normalized averages (fold change over DMSO) of 3 replicate wells for each compound concentration were calculated. EC50 values were calculated using non-linear regression curve fitting in Prism 8 (Graphpad Inc.). Due to solubility limitations of some of the compounds, curve fitting was incomplete, and the highest observed activity was extrapolated to the insoluble doses for accurate EC50 determinations.
EC50 values are reported. Further, using TGF-β3 as a positive control, the concentration of representative compounds required to induce equivalent levels of chondrogenesis is reported. In addition, the maximum activity of each compound and the respective dose that each compound reached maximum chondrogenesis activity is reported.

Data set [6] concerns primary human fibroblasts derived from IPF patients (LL29 cells). The data set can be described thus: Inhibition of TGF-β1 induced fibrosis (αSMA staining) in LL29 fibroblasts. It counts as cell-based. The following applies: Fibroblast, 96 h, LL29 cells, TGF-β1 20 ng/mL, 4 days, % αSMA positive cells. As to the method: Representative compounds were screened using primary human fibroblasts (derived from IPF patients) treated with TGF-β1 to determine their ability to inhibit the fibrotic process.
LL29 cells were plated at 1,500 cells/well in 70 μL/well F12 medium supplemented with 1% Fetal Bovine Serum. […] Wells treated with TGF-β1 and containing DMSO were used as positive control, and cells with only DMSO were negative control. […] Following incubation for 4 days, SYTOX green nucleic acid stain (Life Technologies [Thermo Fisher Scientific]) was added to the wells at a final concentration of 1 μM and incubated at room temperature for 30 min.

Read-outs that look alike come from different tables or passages of the source.

Chain of recombinant GSK3β kinase (P49841 whole entry): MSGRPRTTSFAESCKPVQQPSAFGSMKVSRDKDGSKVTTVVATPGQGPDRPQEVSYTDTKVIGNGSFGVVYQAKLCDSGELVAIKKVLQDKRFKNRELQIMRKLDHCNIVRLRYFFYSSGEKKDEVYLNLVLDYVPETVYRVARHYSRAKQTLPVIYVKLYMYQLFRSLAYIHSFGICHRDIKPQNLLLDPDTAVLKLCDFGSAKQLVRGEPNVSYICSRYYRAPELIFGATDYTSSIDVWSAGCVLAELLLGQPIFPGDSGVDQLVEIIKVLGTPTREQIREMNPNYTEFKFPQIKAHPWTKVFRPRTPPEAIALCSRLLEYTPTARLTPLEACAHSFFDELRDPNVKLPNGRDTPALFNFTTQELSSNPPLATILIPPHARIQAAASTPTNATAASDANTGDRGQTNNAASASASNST

In turn, `CN1CCCn2cc(nn2)-c2nccc3[nH]c(nc23)-c2n[nH]c3ccc(cc23)-c2cncc(c2)C1` gave a ring closure, isolated yield in data set [1] (from CNCc1cncc(-c2ccc3[nH]nc(-c4nc5c(-c6cn(CCCCl)nn6)nccc5[nH]4)c3c2)c1, amine bond, 19-membered ring, DIEA, 16.7 mM, 100.0 °C) of 71.9%.
The compound `O=C1CCc2cccc(c2)-c2cccc3[nH]c(nc23)-c2nn(C(c3ccccc3)(c3ccccc3)c3ccccc3)c3ccc(cc23)-c2cncc(c2)N1` had a ring closure, isolated yield in data set [1] (from Nc1cncc(-c2ccc3c(c2)c(-c2nc4c(-c5cccc(CCC(=O)O)c5)cccc4[nH]2)nn3C(c2ccccc2)(c2ccccc2)c2ccccc2)c1, amide bond, 18-membered ring, HATU/DIEA/DMAP, 17.5 mM, 70.0 °C) of 49.2%.
Regarding `c1ccc(C(c2ccccc2)(c2ccccc2)n2nc3c4cc(ccc42)-c2cncc(c2)OCCCc2cccc(c2)-c2cccc4[nH]c-3nc24)cc1`, in data set [1] (from Oc1cncc(-c2ccc3c(c2)c(-c2nc4c(-c5cccc(CCCBr)c5)cccc4[nH]2)nn3C(c2ccccc2)(c2ccccc2)c2ccccc2)c1, ether bond, 18-membered ring, K2CO3, 20.0 mM, 80.0 °C), the ring closure, isolated yield came out at 50.8%.
As for `O=C1CCc2cccc(c2)-c2ccnc3[nH]c(nc23)-c2n[nH]c3ccc(cc23)-c2cncc(c2)N1` [Compound 4, (Z)-2^3H,3^1H-5-aza-2(7,2)-imidazo[4,5-b]pyridina-3 (3,5)-indazola-4(3,5)-pyridina-1(1,3)-benzenacyclooctaphan-6-one], the IC50 on recombinant GSK3β kinase came to 0.494 µM; in data set [2] it was 0.204 µM. Besides, the EC50 in data set [3] is 7660 nM; in data set [4], over 10000 nM; in data set [5], 69 nM. Further, the inhibition at 10 µM in data set [4] (SW480, read-out: percent inhibition at 10 μM) worked out at 49.5%.
`O=C1CCCc2cccc(c2)-c2cccc3[nH]c(nc23)-c2n[nH]c3ccc(cc23)-c2cncc(c2)N1` [Compound 71]: the IC50 (at recombinant GSK3β kinase; in data set [2]) was 0.014 µM in each case. The EC50 in data set [6] was 21 nM; in data set [3], 17 nM; in data set [4] it was 35 nM; in data set [5], 3120 nM.
In the case of `c1cc2cc(c1)-c1cccc3[nH]c(nc13)-c1n[nH]c3ccc(cc13)-c1cncc(n1)NCCO2` [Compound 109], the IC50 on recombinant GSK3β kinase was 0.062 µM; in data set [2], 0.096 µM. Besides, the EC50 in data set [3] was found to be 34 nM; in data set [4], 54 nM; in data set [5], 9 nM. The same compound registered a ring closure, isolated yield in data set [1] (from NCCOc1cccc(-c2cccc3[nH]c(-c4n[nH]c5ccc(-c6cncc(Cl)n6)cc45)nc23)c1, snar bond, 18-membered ring, DIEA, 19.0 mM, 110.0 °C) of 26.4%.
Consider “(Z)-5,10-Dimethyl-1^1H,2^1H-5,10-diaza-1(2,4)-imidazo[4,5-c]pyridina-2(3,5)-indazola-3(3,5)-pyridinacyclodecaphane”, for which, in data set [1] (amine bond, 18-membered ring, KI/DIEA, 42.4 mM, 90.0 °C), the ring closure, isolated yield was found to be 9.7%.
